Results as given in ChEMBL document CHEMBL5154804, “Species-Selective Targeting of Fungal Hsp90: Design, Synthesis, and Evaluation of Novel 4,5-Diarylisoxazole Derivatives for the Combination Treatment of Azole-Resistant Candidiasis” (J Med Chem, 2022).
Activity calls are given as the source filed them. No cut-off for these calls is given here.

How the values were obtained:
[1] = Binding affinity to recombinant Candida albicans Hsp90 NBD expressed in Escherichia coli by SPR assay
[2] = test system: Candida albicans; assay: Antifungal activity against fluconazole-resistant Candida albicans 100 assessed as inhibition of fungal growth by checker board microdilution assay; assay type: functional
[3] = test system: Candida albicans; assay: Synergistic antibiofilm activity against Candida albicans 904 assessed as inhibition of […] metabolism within the biofilm in presence of fluconazole after 24 hrs by XTT reduction assay; assay type: functional
[4] = test system: Candida albicans; assay: Synergistic antibiofilm activity in Candida albicans 904 assessed as downregulation of EFG1 at 32 ug/ml incubated for 24 hrs in presence of fluconazole by RT-PCR analysis; assay type: functional, organism-based; conditions: dose 32.0 µg/ml
[5] = biological target: CYP2C19 (Homo sapiens, UniProt P33261); assay: Inhibition of CYP2C19 in human liver microsome at 10 uM using S-mephenytoin as substrate incubated for 10 mins in presence of NADPH cofactor by LC-MS/MS analysis; assay type: ADME; conditions: liver microsomes, probe S-mephenytoin
CYP2C19, sequence (P33261 whole entry): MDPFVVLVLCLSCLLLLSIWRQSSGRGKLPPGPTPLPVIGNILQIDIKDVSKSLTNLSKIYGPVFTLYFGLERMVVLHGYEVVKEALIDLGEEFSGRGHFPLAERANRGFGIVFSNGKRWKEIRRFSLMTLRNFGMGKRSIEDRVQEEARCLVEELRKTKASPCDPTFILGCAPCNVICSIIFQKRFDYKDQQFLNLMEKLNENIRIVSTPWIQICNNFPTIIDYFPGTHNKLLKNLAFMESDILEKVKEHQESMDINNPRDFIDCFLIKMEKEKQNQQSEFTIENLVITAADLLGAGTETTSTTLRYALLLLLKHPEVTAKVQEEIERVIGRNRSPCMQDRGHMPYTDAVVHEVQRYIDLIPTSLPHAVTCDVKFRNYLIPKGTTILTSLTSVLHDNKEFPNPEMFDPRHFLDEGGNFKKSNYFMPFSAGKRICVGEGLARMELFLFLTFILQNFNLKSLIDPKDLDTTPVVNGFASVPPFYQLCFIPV

[6] = biological target: CYP2C9 (Homo sapiens, UniProt P11712); assay: Inhibition of CYP2C9 in human liver microsome at 10 uM using diclofenac as substrate incubated for 10 mins in presence of NADPH cofactor by LC-MS/MS analysis; assay type: ADME; conditions: liver microsomes, probe diclofenac
CYP2C9, sequence (P11712 whole entry): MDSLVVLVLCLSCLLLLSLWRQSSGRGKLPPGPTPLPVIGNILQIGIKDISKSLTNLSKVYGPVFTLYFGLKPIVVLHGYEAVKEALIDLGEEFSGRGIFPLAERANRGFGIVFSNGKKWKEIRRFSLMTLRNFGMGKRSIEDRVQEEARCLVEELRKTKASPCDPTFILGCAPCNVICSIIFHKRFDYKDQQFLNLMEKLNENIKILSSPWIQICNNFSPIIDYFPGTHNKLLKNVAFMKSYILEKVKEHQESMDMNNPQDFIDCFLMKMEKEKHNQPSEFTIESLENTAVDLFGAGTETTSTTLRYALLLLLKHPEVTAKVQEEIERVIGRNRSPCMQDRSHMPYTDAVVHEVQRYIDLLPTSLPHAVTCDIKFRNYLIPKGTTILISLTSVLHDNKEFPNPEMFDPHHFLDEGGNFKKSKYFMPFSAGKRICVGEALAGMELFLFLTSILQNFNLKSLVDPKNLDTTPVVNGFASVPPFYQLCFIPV

[7] = Metabolic stability in human liver microsomes assessed as compound remaining in presence of NADPH cofactor under shaking condition for 10 mins measured after 60 mins by LC-MS/MS analysis; assay type: ADME, Microsome; conditions: time 70 min, read-out: Stability
[8] = test system: Candida albicans; assay: Induction of morphological changes in Candida albicans 904 assessed as hyphal formation by measuring CPH1 level incubated for 4 hrs in presence of fluconazole; assay type: functional, organism-based
[9] = test system: A549; assay: Cytotoxicity against human A549 cell assessed as inhibition of cell growth after 24 hrs by MTT assay; assay type: functional, cell-based; conditions: A549, 24 h
[10] = Cytotoxicity against human THLE-2 cell assessed as inhibition of cell growth after 24 hrs by MTT assay; assay type: toxicity, cell-based; conditions: THLE-2 cells
[11] = test system: Candida albicans; assay: Synergistic antifungal activity against fluconazole-resistant Candida albicans 100 assessed as inhibition of fungal growth in presence of fluconazole by checker board microdilution assay; assay type: functional
[12] = Stability in human plasma assessed as compound remaining at 120 mins by LC-MS/MS analysis; assay type: ADME, cell-free; conditions: read-out: Stability
[13] = test system: Candida albicans; assay: Synergistic antibiofilm activity in Candida albicans 904 assessed as downregulation of CPH1 at 32 ug/ml incubated for 24 hrs in presence of fluconazole by RT-PCR analysis; assay type: functional, organism-based; conditions: dose 32.0 µg/ml
[14] = test system: Candida albicans; assay: Synergistic antifungal activity against fluconazole-resistant Candida albicans 103 assessed as inhibition of fungal growth in presence of fluconazole by checker board microdilution assay; assay type: functional
[15] = test system: Candida albicans; assay: Ratio of MFC for Candida albicans 904 to MIC for Candida albicans 904 in presence of fluconazole; assay type: functional
[16] = test system: RAW264.7; assay: Cytotoxicity against mouse RAW264.7 cell assessed as inhibition of cell growth after 24 hrs by MTT assay; assay type: functional, cell-based; conditions: RAW264.7, 24 h
[17] = test system: Candida albicans; assay: Synergetic antifungal activity against fluconazole-resistant Candida albicans 901 assessed as fractional inhibitory concentration index in presence of fluconazole by checker board microdilution assay; assay type: functional
[18] = test system: Candida albicans; assay: Antibiofilm activity against Candida albicans 904 assessed as inhibition of […] metabolism within the biofilm after 24 hrs by XTT reduction assay; assay type: functional
[19] = test system: Candida albicans; assay: Induction of morphological changes in Candida albicans 904 assessed as hyphal formation by measuring TEC1 level incubated for 4 hrs in presence of fluconazole; assay type: functional, organism-based
[20] = test system: Candida albicans; assay: Potentiation of fluconazole-induced antifungal activity against fluconazole-resistant Candida albicans 901 assessed as fluconazole MIC by checker board microdilution assay; assay type: functional
[21] = test system: Candida albicans; assay: Antifungal activity against fluconazole-resistant Candida albicans 901 assessed as inhibition of fungal growth by checker board microdilution assay; assay type: functional
[22] = test system: Candida albicans; assay: Synergetic antifungal activity against fluconazole-resistant Candida albicans 904 assessed as fractional inhibitory concentration index in presence of fluconazole by checker board microdilution assay; assay type: functional
[23] = test system: Candida albicans; assay: Synergistic antibiofilm activity against Candida albicans 904 assessed as inhibition of […] metabolism within the biofilm in presence of fluconazole after 48 hrs by XTT reduction assay; assay type: functional
[24] = Cmax in Sprague-Dawley rat at 10 mg/kg, iv measured up to 24 hrs by LC/MS/MS analysis; assay type: ADME, organism-based; design: dose 10 mg/kg, time < 24 hrs, route iv; conditions: in vivo
[25] = test system: Rattus norvegicus; assay: In vivo antifungal activity against azole resistant Candida albicans 904 infected in rat assessed as decrease in fungal invasion at 10 mg/kg, ip in presence of fluconazole administered for 5 days, qd by PAS and HE staining based microscopy; assay type: functional, organism-based; conditions: time 5.0 day
[26] = biological target: T1, CYP1A2 (Homo sapiens, UniProt P05177); assay: Inhibition of CYP1A2 in human liver microsome at 10 uM using phenacetin as substrate incubated for 10 mins in presence of NADPH cofactor and fluconazole by LC-MS/MS analysis; assay type: ADME; conditions: liver microsomes, probe phenacetin
T1 sequence (P05177 whole entry): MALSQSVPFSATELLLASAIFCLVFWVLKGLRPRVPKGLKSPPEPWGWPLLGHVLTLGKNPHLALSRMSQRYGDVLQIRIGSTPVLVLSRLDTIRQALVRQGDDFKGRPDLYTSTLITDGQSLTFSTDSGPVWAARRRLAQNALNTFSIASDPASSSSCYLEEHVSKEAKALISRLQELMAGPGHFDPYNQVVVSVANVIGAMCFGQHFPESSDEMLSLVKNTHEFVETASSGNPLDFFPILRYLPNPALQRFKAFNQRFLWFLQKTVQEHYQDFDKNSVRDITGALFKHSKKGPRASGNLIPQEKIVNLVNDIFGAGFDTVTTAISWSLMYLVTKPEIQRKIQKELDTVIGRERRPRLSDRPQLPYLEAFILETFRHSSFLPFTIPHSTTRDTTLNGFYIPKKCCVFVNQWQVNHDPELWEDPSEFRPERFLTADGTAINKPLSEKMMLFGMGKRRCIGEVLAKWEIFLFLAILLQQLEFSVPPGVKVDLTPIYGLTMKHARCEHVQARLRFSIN

[27] = biological target: CYP2D6 (Homo sapiens, UniProt P10635); assay: Inhibition of CYPD6 in human liver microsome at 10 uM using dextromethorphan as substrate incubated for 10 mins in presence of NADPH cofactor and fluconazole by LC-MS/MS analysis; assay type: ADME; conditions: liver microsomes, probe dextromethorphan
CYP2D6, sequence (P10635 whole entry): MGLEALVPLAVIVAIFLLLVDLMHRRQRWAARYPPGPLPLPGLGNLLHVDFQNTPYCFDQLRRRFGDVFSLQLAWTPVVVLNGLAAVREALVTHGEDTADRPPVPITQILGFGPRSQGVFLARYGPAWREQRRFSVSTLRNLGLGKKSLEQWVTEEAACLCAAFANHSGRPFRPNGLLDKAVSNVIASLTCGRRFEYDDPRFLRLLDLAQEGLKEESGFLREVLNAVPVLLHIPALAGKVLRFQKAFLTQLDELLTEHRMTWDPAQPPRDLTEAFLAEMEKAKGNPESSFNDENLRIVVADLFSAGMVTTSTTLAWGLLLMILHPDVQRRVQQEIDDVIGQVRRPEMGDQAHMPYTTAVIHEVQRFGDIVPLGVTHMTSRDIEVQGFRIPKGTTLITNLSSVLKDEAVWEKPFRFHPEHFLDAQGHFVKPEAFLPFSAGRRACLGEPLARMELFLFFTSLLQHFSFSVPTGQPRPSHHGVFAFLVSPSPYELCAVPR

[28] = test system: Rattus norvegicus; assay: In vivo antifungal activity against azole resistant Candida albicans 904 infected in rat assessed as colonization of fungal cells at 10 mg/kg, ip administered for 5 days, qd by PAS and HE staining based microscopy; assay type: functional, organism-based; conditions: time 5.0 day
[29] = Stability in rat plasma assessed as half life at 120 mins by LC-MS/MS analysis; assay type: ADME, cell-free
[30] = test system: Rattus norvegicus; assay: In vivo antifungal activity against azole resistant Candida albicans 904 infected in rat assessed as aggregation of inflammatory leukocytes at 10 mg/kg, ip administered for 5 days, qd by PAS and HE staining based microscopy; assay type: functional, organism-based; conditions: time 5.0 day
[31] = Metabolic stability in rat liver microsomes assessed as microsomal intrinsic clearance in presence of NADPH cofactor under shaking condition for 10 mins measured after 5 to 60 mins by LC-MS/MS analysis; assay type: ADME, Microsome; conditions: time 15-70 min
[32] = test system: Rattus norvegicus; assay: In vivo antifungal activity against azole resistant Candida albicans 904 infected in rat assessed as reduction in kidney fungal burden at 10 mg/kg, ip administered for 5 days, qd in presence of fluconazole; assay type: functional, organism-based; conditions: time 5.0 day

CNC(=O)c1noc(-c2cc(-c3ccc(C)cc3)c(O)cc2O)c1-c1ccc(CN2CCOCC2)cc1
Kd [1]: 0.933 µM | MIC80 [2]: > 64 µg/mL | MIC50 [3]: 1 µg/mL | Activity [4]: Active | inhibition at 10 min, 10 µM [5]: 18.6% | inhibition at 10 min, 10 µM [6]: 25.2% | remaining at 1.167 h [7]: 19.1% | Activity [8]: Active | IC50 [9]: 7.12 µM | IC50 at 24 h [10]: 10.6 µM | MIC80 [11]: 0.25 µg/mL | remaining at 2 h [12]: 92.8% | Activity [13]: Active | MIC80 [14]: 1 µg/mL | Ratio [15]: 2 | IC50 [16]: 11.3 µM | fractional inhibitory concentration index (FICI) [17]: 0.039 | MIC50 [18]: > 64 µg/mL | Activity [19]: Active | MIC80 [20]: 2 µg/mL | MIC80 [21]: > 64 µg/mL | fractional inhibitory concentration index (FICI) [22]: 0.02 | MIC50 [23]: 4 µg/mL

CCNC(=O)c1noc(-c2cc(-c3ccc(C)cc3)c(O)cc2O)c1-c1ccc(CN2CCOCC2)cc1
Cmax [24]: 3440 ng/mL | MIC80 [2]: > 64 µg/mL | MIC50 [3]: 0.25 µg/mL | Activity [4]: Active | inhibition at 10 min, 10 µM [5]: 22.2% | inhibition at 10 min, 10 µM [6]: 36.5% | remaining at 1.167 h [7]: 27.4% | Activity [8]: Active | IC50 [9]: 13.1 µM | Activity [25]: Active | IC50 at 24 h [10]: 7.15 µM | MIC80 [11]: 0.125 µg/mL | remaining at 2 h [12]: 110% | Activity [13]: Active | MIC80 [14]: 0.25 µg/mL | Ratio [15]: 1 | inhibition at 10 min, 10 µM [26]: 17.8% | inhibition at 10 min, 10 µM [27]: 36.4% | Activity [28]: Active | half-life [29]: > 4.8 h | IC50 [16]: 17.1 µM | Activity [30]: Active | fractional inhibitory concentration index (FICI) [17]: 0.018 | MIC50 [18]: > 64 µg/mL | Activity [19]: Active | CLint [31]: 45.3 µL/min/mg | MIC80 [20]: 1 µg/mL | MIC80 [21]: > 64 µg/mL | fractional inhibitory concentration index (FICI) [22]: 0.035 | Activity [32]: Active | MIC50 [23]: 1 µg/mL
